Assay results reported in patent US20110044938A1 (NYCOMED GMBH, priority 2006, published 2011).

Legend:
[1] = system: RKO (RKOp27) human colon adenocarcinoma cells; test: Alamar Blue cell viability assay, anti-proliferative/cytotoxic activity on proliferating RKO subclones; assay type: cell-based; settings: RKOp27, 72 h, RKO p27 uninduced (proliferating) cells, value = class bound given in Table A, read-out: −logIC50 RKO p27 uninduced (proliferating) (converted)
Description: The anti-proliferative/cytotoxic activity of the compounds described herein, can be tested on subclones of RKO (RKOp27) human colon adenocarcinoma cells (Schmidt et al., Oncogene 19, 2423-2429; 2000) using the Alamar Blue cell viability assay (described in O'Brien et al. Eur J Biochem 267, 5421-5426, 2000). The compounds are dissolved as 20 mM solutions in dimethylsulfoxide (DMSO) and subsequently diluted in semi-logarithmic steps. DMSO dilutions are further diluted 1:100 into Dulbecco's modified Eagle's medium (DMEM) containing 10% fetal calf serum to a final concentration twice as much as the final concentration in the test. RKO subclones are seeded into 96 well flat bottom plates at a density of 5000 cells per well in a volume of 50 μl per well. 24 hours after seeding the 50 μl each of the compound dilutions in DMEM medium are added into each well of the 96 Well plate. Each compound dilution is tested as quadruplicates. Wells containing untreated control cells are filled with 50 μl DMEM medium containing 1% DMSO. The cells are then incubated with the substances for 72 hours at 37° C. in a hunified atmosphere containing 5% carbon dioxide. To determine the viability of the cells, 10 μl of an Alamar Blue solution (Biosource) are added and the fluorescence is measured at an extinction of 544 nm and an emission of 590 nm. For the calculation of the cell viability the emission value from untreated cells is set as 100% viability and the emission rates of treated cells are set in relation to the values of untreated cells. Viabilities are expressed as % values.
The corresponding IC50 values of the compounds for anti-proliferative/cytotoxic activity are determined from the concentration-effect curves.
(§1) Representative −log IC50 [mol/l] values for anti-proliferation/cytotoxicity determined in the mentioned assays follow from the following table A, in which the numbers of the compound correspond to the numbers of the examples.

[2] = system: subclones of RKO colon adenocarcinoma cells (RKOp27 or RKOp21) arrested by Ponasterone A; test: Alamar Blue cell viability assay, cell cycle specific mode of action: cells arrested by ectopic p27Kip1 induced by Ponasterone A versus proliferating cells; assay type: cell-based; settings: Homo sapiens, RKO p27 induced (arrested) cells, 10 μM Ponasterone A, 72 hours, value = class bound given in Table A, read-out: −logIC50 RKO p27 induced (arrested) (converted)
Description: To determine the cell cycle specific mode of action, subclones of RKO colon adenocarcinoma cells (RKOp27 or RKOp21 as described by Schmidt et al. in Oncogene 19, 2423-2429; 2000) are seeded into 96 well flat bottom plates at a density of 15000 cells per well in a volume of 50 μl per well in DMEM growth medium with 10% FCS containing 10 μM Ponasterone A. 24 hours after seeding the 50 μl each of the compound dilutions in DMEM medium are added into each well of the 96 Well plate. Each compound dilution is tested as quadruplicates. Wells containing untreated control cells are filled with 50 μl DMEM medium containing 1% DMSO. The cells are then incubated with the substances for 72 hours at 37° C. in a humidified athmosphere containing 5% carbon dioxide. To determine the viability of the cells, 10 μl of an Alamar Blue solution (Biosource) are added and the fluorescence was measured at an extinction of 544 nm and an emission of 590 nm. For the calculation of the cell viability the emission value from untreated cells is set as 100% viability and the emission rates of treated cells are set in relation to the values of untreated cells. Viabilities are expressed as % values. Viability is compared of proliferating cells grown in the absence of the inducer Ponasterone A, versus viability of cells arrested by the expression of ectopic p27Kip1 induced by Ponasterone A.
as §1

| Compound | IC50 [1] [µM] | IC50 [2] [µM] |
| --- | --- | --- |
| N#Cc1c(NC(=O)/C=C/c2cccnc2)sc2c1CCC(OC(=O)NCCn1ccnc1)C2 (stereo not drawn) [Example 37, (2-Imidazol-1-yl-ethyl)-carbamic acid 3-cyano-2-((E)-3-pyridin-3-yl-allanoylamino)-4,5,6,7-tetrahydro-benzo[b]thiophen-6-yl ester] | 0.501 to 2 | ≥ 100 |
| Cn1cncc1CNC(=O)OC1CCc2c(sc(NC(=O)/C=C/c3cccnc3)c2C#N)C1 (stereo not drawn) [Example 38, (3-Methyl-3H-imidazol-4-ylmethyl)-carbamic acid 3-cyano-2-((E)-3-pyridin-3-yl-allanoylamino)-4,5,6,7-tetrahydro-benzo[b]thiophen-6-yl ester] | 0.501 to 2 | ≥ 100 |
| N#Cc1c(NC(=O)/C=C/c2cccnc2)sc2c1CCC(OC(=O)NCc1ncc[nH]1)C2 (stereo not drawn) [Example 39, (1H-Imidazol-2-ylmethyl)-carbamic acid 3-cyano-2-((E)-3-pyridin-3-yl-allanoylamino)-4,5,6,7-tetrahydro-benzo[b]thiophen-6-yl ester] | 0.501 to 2 | ≥ 100 |
| Cn1nccc1CNC(=O)OC1CCc2c(sc(NC(=O)/C=C/c3cccnc3)c2C#N)C1 (stereo not drawn) [Example 40, (2-Methyl-2H-pyrazol-3-ylmethyl)-carbamic acid 3-cyano-2-((E)-3-pyridin-3-yl-allanoylamino)-4,5,6,7-tetrahydro-benzo[b]thiophen-6-yl ester] | ≤ 0.501 | ≥ 100 |
| Cn1cc(CNC(=O)OC2CCc3c(sc(NC(=O)/C=C/c4cccnc4)c3C#N)C2)cn1 (stereo not drawn) [Example 41, (1-Methyl-1H-pyrazol-4-ylmethyl)-carbamic acid 3-cyano-2-((E)-3-pyridin-3-yl-allanoylamino)-4,5,6,7-tetrahydro-benzo[b]thiophen-6-yl ester] | ≤ 0.501 | ≥ 100 |
| Cc1cc(CNC(=O)OC2CCc3c(sc(NC(=O)/C=C/c4cccnc4)c3C#N)C2)no1 (stereo not drawn) [Example 42, (5-Methyl-isoxazol-3-ylmethyl)-carbamic acid 3-cyano-2-((E)-3-pyridin-3-yl-allanoylamino)-4,5,6,7-tetrahydro-benzo[b]thiophen-6-yl ester] | 0.501 to 2 | ≥ 100 |
| Cn1cncc1CNC(=O)OCC1CCc2c(sc(NC(=O)/C=C/c3cccnc3)c2C#N)C1 (stereo not drawn) [Example 43, (3-Methyl-3H-imidazol-4-ylmethyl)-carbamic acid 3-cyano-2-((E)-3-pyridin-3-yl-allanoylamino)-4,5,6,7-tetrahydro-benzo[b]thiophen-6-ylmethyl ester] | ≤ 0.501 | ≥ 100 |
| Cn1cnc(CNC(=O)OCC2CCc3c(sc(NC(=O)/C=C/c4cccnc4)c3C#N)C2)c1 (stereo not drawn) [Example 44, (1-Methyl-1H-imidazol-4-ylmethyl)-carbamic acid 3-cyano-2-((E)-3-pyridin-3-yl-allanoylamino)-4,5,6,7-tetrahydro-benzo[b]thiophen-6-ylmethyl ester] | ≤ 0.501 | ≥ 100 |
| Cn1ccnc1CNC(=O)OCC1CCc2c(sc(NC(=O)/C=C/c3cccnc3)c2C#N)C1 (stereo not drawn) [Example 45, (1-Methyl-1H-imidazol-2-ylmethyl)-carbamic acid 3-cyano-2-((E)-3-pyridin-3-yl-allanoylamino)-4,5,6,7-tetrahydro-benzo[b]thiophen-6-ylmethyl ester] | 0.501 to 2 | ≥ 100 |
| Cn1nccc1CNC(=O)OCC1CCc2c(sc(NC(=O)/C=C/c3cccnc3)c2C#N)C1 (stereo not drawn) [Example 46, (2-Methyl-2H-pyrazol-3-ylmethyl)-carbamic acid 3-cyano-2-((E)-3-pyridin-3-yl-allanoylamino)-4,5,6,7-tetrahydro-benzo[b]thiophen-6-ylmethyl ester] | ≤ 0.501 | ≥ 100 |
| Cc1cc(CNC(=O)OCC2CCc3c(sc(NC(=O)/C=C/c4cccnc4)c3C#N)C2)no1 (stereo not drawn) [Example 47, (5-Methyl-isoxazol-3-ylmethyl)-carbamic acid 3-cyano-2-((E)-3-pyridin-3-yl-allanoylamino)-4,5,6,7-tetrahydro-benzo[b]thiophen-6-ylmethyl ester] | ≤ 0.501 | ≥ 100 |
| Cc1cc(CNC(=O)OC[C@H]2CCc3c(sc(NC(=O)/C=C/c4cccnc4)c3C#N)C2)no1 [Example 47a, (S)-(5-Methyl-isoxazol-3-ylmethyl)-carbamic acid 3-cyano-2-((E)-3-pyridin-3-yl-allanoylamino)-4,5,6,7-tetrahydro-benzo[b]thiophen-6-ylmethyl ester] | ≤ 0.501 | ≥ 100 |
| Cc1cc(CNC(=O)OC[C@@H]2CCc3c(sc(NC(=O)/C=C/c4cccnc4)c3C#N)C2)no1 [Example 47b, (5-Methyl-isoxazol-3-ylmethyl)-carbamic acid (R)-3-cyano-2-((E)-3-pyridin-3-yl-allanoylamino)-4,5,6,7-tetrahydro-benzo[b]thiophen-6-ylmethyl ester] | ≤ 0.501 | ≥ 100 |
| COC(=O)OCC1CCc2c(sc(NC(=O)/C=C/c3cccnc3)c2C#N)C1 (stereo not drawn) [Example 49, Carbonic acid 3-cyano-2-((E)-3-pyridin-3-yl-allanoylamino)-4,5,6,7-tetrahydro-benzo[b]thiophen-6-ylmethyl ester methyl ester] | 0.501 to 2 | ≥ 100 |
| Cn1cc(CNC(=O)OCC2CCc3c(sc(NC(=O)/C=C/c4cccnc4)c3C#N)C2)cn1 (stereo not drawn) [Example 50, (1-Methyl-1H-pyrazol-4-ylmethyl)-carbamic acid 3-cyano-2-((E)-3-pyridin-3-yl-allanoylamino)-4,5,6,7-tetrahydro-benzo[b]thiophen-6-ylmethyl ester] | ≤ 0.501 | ≥ 100 |
| Cn1cccc1CNC(=O)OCC1CCc2c(sc(NC(=O)/C=C/c3cccnc3)c2C#N)C1 (stereo not drawn) [Example 51, (1-Methyl-1H-pyrrol-2-ylmethyl)-carbamic acid 3-cyano-2-((E)-3-pyridin-3-yl-allanoylamino)-4,5,6,7-tetrahydro-benzo[b]thiophen-6-ylmethyl ester] | 0.501 to 2 | ≥ 100 |
| CCn1nccc1CNC(=O)OCC1CCc2c(sc(NC(=O)/C=C/c3cccnc3)c2C#N)C1 (stereo not drawn) [Example 52, (2-Ethyl-2H-pyrazol-3-ylmethyl)-carbamic acid 3-cyano-2-((E)-3-pyridin-3-yl-allanoylamino)-4,5,6,7-tetrahydro-benzo[b]thiophen-6-ylmethyl ester] | 0.501 to 2 | ≥ 100 |
| Cn1cnc(CNC(=O)OC2CCc3c(sc(NC(=O)/C=C/c4cccnc4)c3C#N)C2)c1 (stereo not drawn) [Example 53, (1-Methyl-1H-imidazol-4-ylmethyl)-carbamic acid 3-cyano-2-((E)-3-pyridin-3-yl-allanoylamino)-4,5,6,7-tetrahydro-benzo[b]thiophen-6-yl ester] | 0.501 to 2 | ≥ 100 |
| Cc1nn(C)cc1CNC(=O)OCC1CCc2c(sc(NC(=O)/C=C/c3cccnc3)c2C#N)C1 (stereo not drawn) [Example 54, (1,3-Dimethyl-1H-pyrazol-4-ylmethyl)-carbamic acid 3-cyano-2-((E)-3-pyridin-3-yl-allanoylamino)-4,5,6,7-tetrahydro-benzo[b]thiophen-6-ylmethyl ester] | ≤ 0.501 | ≥ 100 |
| COC(=O)OC1CCc2c(sc(NC(=O)/C=C/c3cccnc3)c2C#N)C1 (stereo not drawn) [Example 55, Carbonic acid 3-cyano-2-((E)-3-pyridin-3-yl-allanoylamino)-4,5,6,7-tetrahydro-benzo[b]thiophen-6-yl ester methyl ester] | ≤ 0.501 | ≥ 100 |
| Cn1cccc1CNC(=O)OC1CCc2c(sc(NC(=O)/C=C/c3cccnc3)c2C#N)C1 (stereo not drawn) [Example 56, (1-Methyl-1H-pyrrol-2-ylmethyl)-carbamic acid 3-cyano-2-((E)-3-pyridin-3-yl-allanoylamino)-4,5,6,7-tetrahydro-benzo[b]thiophen-6-yl ester] | ≤ 0.501 | ≥ 100 |
